Assay results taken from patent US10294202B2, “Pyrrolidinones as herbicides” (FMC Corporation, priority 2013, dated 2019).

Experiments:
[1] = system: pigweed; assay: Test A pre-/postemergence herbicide test; type: in vivo, Amaranthus retroflexus
Procedure, shortened: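 Approximately 10 days after treatment in the greenhouse, plants were compared with untreated controls and given a 0–100 visual injury rating. Applications: preemergence directed soil spray; postemergence on 2–10 cm plants at the one- to two-leaf stage.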

[2] = system: blackgrass; assay: Test A postemergence herbicide test; type: in vivo, Alopecurus myosuroides
Procedure, shortened: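 Plants at the one- to two-leaf stage, 2–10 cm tall, grown in loam/sand pots, received postemergence sprays of the test chemicals. After about 10 days in the greenhouse, injury was scored visually against untreated controls on a 0–100 scale (0 none, 100 complete control).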

[3] = system: galium; assay: Test C pre-/postemergence herbicide test; type: in vivo, Galium aparine
Procedure, shortened: (§1)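 Plants grown and held in a greenhouse for 13 to 15 days post-spray, then rated 0–100 by visual comparison with controls. Pre treatments targeted seeds in loam and sand; post treatments targeted 1- to 4-leaf plants in peat-based potting medium.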

[4] = system: foxtail, giant; assay: Test C pre-/postemergence herbicide test; type: in vivo, Setaria faberii
Procedure, shortened: as §1

[5] = system: morningglory; assay: Test C pre-/postemergence herbicide test; type: in vivo, Ipomoea coccinea
Procedure, shortened: as §1

[6] = system: kochia; assay: Test C pre-/postemergence herbicide test; type: in vivo, Kochia scoparia; conditions: Postemergence
Procedure, shortened: as §1

[7] = system: oat, wild; assay: Test C pre-/postemergence herbicide test; type: in vivo, Avena fatua; conditions: Postemergence
Procedure, shortened: as §1

[8] = Postemergence, 125 g ai/ha, visual rating on 0 to 100 scale (0 no effect, 100 complete control), approx. 10 days
[9] = Postemergence, 500 g ai/ha, 0 to 100 scale (0 no effect, 100 complete control)
[10] = Preemergence, 125 g ai/ha, 0 to 100 scale where 0 is no effect and 100 is complete control
[11] = 500 g ai/ha, 0 to 100 scale (0 no effect, 100 complete control)
[12] = Postemergence, 31 g ai/ha, scale 0 to 100 (0 no effect, 100 complete control)
[13] = Postemergence, 62 g ai/ha, scale 0 (no effect) to 100 (complete control)
[14] = Postemergence, 125 g ai/ha, scale 0 to 100 (0 no effect, 100 complete control)
[15] = Postemergence, 250 g ai/ha, scale 0 to 100 (0 no effect, 100 complete control)
[16] = Preemergence, 31 g ai/ha, scale 0 to 100, 0 is no effect and 100 is complete control
[17] = Preemergence, 62 g ai/ha, scale 0 to 100 (0 no effect, 100 complete control)
[18] = Preemergence, 125 g ai/ha, scale 0 to 100 (0 no effect, 100 complete control)
[19] = 31 g ai/ha, scale 0 to 100 (0 no effect, 100 complete control)
[20] = 62 g ai/ha, scale 0 (no effect) to 100 (complete control)
[21] = 125 g ai/ha, scale 0 to 100 (0 no effect, 100 complete control)
[22] = 250 g ai/ha, scale 0 to 100 (0 no effect, 100 complete control)
[23] = Preemergence, 500 g ai/ha, visual rating on 0 to 100 scale (0 no effect, 100 complete control)
[24] = 125 g ai/ha, visual rating on 0 to 100 scale (0 no effect, 100 complete control), approx. 10 days
[25] = Preemergence, 125 g ai/ha, scale 0 to 100

Row | Compound | Plant response rating, Pigweed [1, 8] | Plant response rating, Pigweed [1, 9] | Plant response rating, Pigweed [1, 10] | Plant response rating, Blackgrass [2, 11] | Plant response rating, Galium [3, 12] | Plant response rating, Galium [3, 13] | Plant response rating, Galium [3, 14] | Plant response rating, Galium [3, 15] | Galium plant response rating [3, 16] | Galium plant response rating [3, 17] | Plant response rating (scale of 0 to 100), Galium ([3]; Preemergence, 250 g ai/ha) | Plant response rating, Foxtail, Giant [4, 12] | Plant response rating, Foxtail, Giant [4, 13] | Plant response rating, Foxtail, Giant [4, 14] | Plant response rating, Foxtail, Giant [4, 15] | Foxtail, Giant plant response rating [4, 16] | Foxtail, Giant plant response rating [4, 17] | Plant response rating (scale of 0 to 100), Foxtail, Giant ([4]; Preemergence, 250 g ai/ha) | Plant response rating, Morningglory [5, 12] | Plant response rating, Morningglory [5, 13] | also measured
1 | O=C1NCC(c2cc(F)cc(F)c2)C1C(=O)Nc1cccc(F)c1F (racemic) [Compound 279] | 0 | 0 | 0 | 70 | 0 | 15 | 30 | 30 | 0 | 0 | 85 | 0 | 30 | 90 | 90 | 90 | 95 | 98 | 5 | 60 | Plant response rating, Pigweed ([1]; preemergence, 500 g ai/ha, 0 to 100 scale, 0 is no effect and 100 is complete control): 40; Plant response rating, Blackgrass ([2]; 125 g ai/ha, 0 to 100 scale, 0 is no effect, 100 is complete control): 60; Plant response rating, Galium [3, 18]: 85; Plant response rating, Foxtail, Giant [4, 18]: 98; Plant response rating, Morningglory [5, 14]: 30; Plant response rating, Morningglory [5, 15]: 25; Morningglory plant response rating [5, 16]: 0; Morningglory plant response rating [5, 17]: 0; Plant response rating, Morningglory [5, 18]: 10; Plant response rating (scale of 0 to 100), Morningglory ([5]; Preemergence, 250 g ai/ha): 10; Plant response rating, Kochia [6, 19]: 0; Plant response rating, Kochia [6, 20]: 30; Plant response rating, Kochia [6, 21]: 85; Plant response rating, Kochia [6, 22]: 35; Plant response rating, Oat, Wild [7, 19]: 0; Plant response rating, Oat, Wild [7, 20]: 0; Plant response rating, Oat, Wild [7, 21]: 0; Plant response rating, Oat, Wild [7, 22]: 0
2 | CN1CC(c2ccc(F)c(F)c2)C(C(=O)Nc2ccccc2F)C1=O (centres unmarked) [Compound 302] | 0 | 10 | 10 | 60 | 10 | 15 | 10 | 45 | 0 | 5 | 85 | 0 | 45 | 80 | 80 | 90 | 95 | 100 | 10 | 15 | Pigweed plant response rating [1, 23]: 60; Plant response rating, Blackgrass [2, 24]: 40; Plant response rating, Galium [3, 18]: 85; Plant response rating, Foxtail, Giant [4, 18]: 100; Plant response rating, Morningglory [5, 14]: 50; Plant response rating, Morningglory [5, 15]: 25; Morningglory plant response rating [5, 16]: 0; Morningglory plant response rating [5, 17]: 0; Plant response rating, Morningglory [5, 18]: 0; Plant response rating (scale of 0 to 100), Morningglory ([5]; Preemergence, 250 g ai/ha): 0; Plant response rating, Kochia [6, 19]: 0; Plant response rating, Kochia [6, 20]: 0; Plant response rating, Kochia [6, 21]: 0; Plant response rating, Kochia [6, 22]: 60; Plant response rating, Oat, Wild [7, 19]: 0; Plant response rating, Oat, Wild [7, 20]: 0; Plant response rating, Oat, Wild [7, 21]: 0; Plant response rating, Oat, Wild [7, 22]: 0
3 | O=C1NCC(c2cccc(Br)c2)C1C(=O)Nc1cccc(F)c1F (centres unmarked) [Compound 309] | 0 | 0 | 0 | 70 | 30 | 40 | 55 | 60 | 0 | 0 | 85 | 10 | 0 | 40 | 80 | 90 | 90 | 95 | 60 | 10 | Pigweed plant response rating [1, 23]: 0; Plant response rating, Blackgrass [2, 24]: 60; Plant response rating, Galium [3, 25]: 75; Plant response rating, Foxtail, Giant [4, 25]: 90; Plant response rating, Morningglory [5, 14]: 25; Plant response rating, Morningglory [5, 15]: 10; Morningglory plant response rating [5, 16]: 0; Morningglory plant response rating [5, 17]: 0; Plant response rating, Morningglory [5, 25]: 10; Plant response rating (scale of 0 to 100), Morningglory ([5]; Preemergence, 250 g ai/ha): 10; Plant response rating, Kochia [6, 19]: 5; Plant response rating, Kochia [6, 20]: 5; Plant response rating, Kochia [6, 22]: 75; Plant response rating, Oat, Wild [7, 19]: 0; Plant response rating, Oat, Wild [7, 20]: 0; Plant response rating, Oat, Wild [7, 21]: 0; Plant response rating, Oat, Wild [7, 22]: 0
